Values quoted from earlier work, collected in US20210275558A1, “METHODS FOR TREATING, PHARMACEUTICAL COMPOSITIONS AND USES THEREOF” (Boehringer Ingelheim International GmbH, priority 2018, published 2021).

How the values were obtained:
[1] = in vivo
[2] = crystalline form
[3] = tested on: patients with type 2 diabetes mellitus and high cardiovascular risk
[4] = secondary outcomes analyses, patients with type 2 diabetes and established cardiovascular disease

## OC[C@H]1O[C@@H](c2ccc(Cl)c(Cc3ccc(O[C@H]4CCOC4)cc3)c2)[C@H](O)[C@@H](O)[C@@H]1O [empagliflozin, 1-chloro-4-(β-D-glucopyranos-1-yl)-2-[4-((S)-tetrahydrofuran-3-yloxy)-benzyl]benzene]
[1]
  diuretic, arterial stiffness and vascular effects: diuretic effect, reduced arterial stiffness and direct vascular effects
[2]
  solubility: good solubility properties
  stability: physico-chemically stable
[3]; in contrast to increases observed with diuretics
  reflex-mediated sympathetic activation: not being associated with clinically relevant reflex-mediated sympathetic activation
[3]; in vivo
  blood pressure and heart rate: blood pressure reductions without clinically relevant changes of the heart rate
[3]; patients with type 2 diabetes mellitus and high cardiovascular risk
  risk of cardiovascular death, hospitalization for heart failure and overall mortality: reduced the risk of cardiovascular death, hospitalization for heart failure and overall mortality
[3]; [4]
  progression of kidney disease: slowed progression of kidney disease
  risk for clinically relevant kidney events (inclusive end-stage kidney disease): reduced the risk for clinically relevant kidney events
